PubChem BioAssay (NCI)
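All cell lines were grown in 96-well plates and treated with compound for 48 hours. At the TGI there is no net growth.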

Tests used:
Assay in all cases: NCI anticancer screen, dose series, 48 h
[1] = test system: SR leukemia
[2] = test system: UO-31 renal
[3] = test system: MOLT-4 leukemia
[4] = test system: HL-60(TB) leukemia
[5] = test system: NCI-H23 lung
[6] = test system: HCT-15 colon
[7] = test system: HT29 colon
[8] = test system: EKVX NSCLC
[9] = test system: 786-0 renal
[10] = test system: RXF 393 renal
[11] = test system: MDA-MB-435
[12] = test system: HCT-116 colon
[13] = test system: NCI/ADR-RES ovarian
[14] = test system: HOP-92 NSCLC
[15] = test system: LOX IMVI melanoma
[16] = test system: SK-OV-3 ovarian
[17] = test system: SK-MEL-28 melanoma
[18] = test system: SK-MEL-2 melanoma
[19] = test system: IGROV1 ovarian

SMILES | TGI [1] [µM] | TGI [2] [µM] | TGI [3] [µM] | TGI [4] [µM] | TGI [5] [µM] | TGI [6] [µM] | TGI [7] [µM] | TGI [8] [µM] | TGI [9] [µM] | TGI [10] [µM] | TGI [11] [µM] | TGI [12] [µM] | TGI [13] [µM] | TGI [14] [µM] | TGI [15] [µM] | TGI [16] [µM] | TGI [17] [µM] | TGI [18] [µM] | TGI [19] [µM]
CCC1NC(=O)C1NC(=O)OC (centres undefined) | > 100 | > 100 | > 100 | > 100 | > 100 | > 100 | > 100 | > 100 | > 100 | > 100 | > 100 | > 100 | > 100 | > 100 | > 100 | > 100 | > 100 | > 100 | > 100
CCCC1(NC(=O)C(F)(F)F)CC(OC)OC2COC(c3ccccc3)OC21 (centres undefined) | > 100 | > 100 | > 100 | 95.3 | > 100 | > 100 |  | > 100 | > 100 | > 100 | > 100 | > 100 | > 100 | > 100 | > 100 | > 100 | > 100 | > 100 | > 100
CN(C)CCCNC(=O)CCNC(=O)c1cc(NC(=O)c2cc(NC(=O)c3cc(NC(=O)c4nc(NC(=O)CCCNC(=O)c5cc(NC(=O)c6cc(NC(=O)c7cc(NC(=O)c8nccn8C)cn7C)cn6C)cn5C)cn4C)cn3C)cn2C)cn1C | > 100 | > 100 | > 100 | > 100 | > 100 | > 100 | > 100 | > 100 | > 100 | > 100 | > 100 | > 100 | > 100 | > 100 | > 100 | > 100 | > 100 | > 100 | > 100
O=CC(=C(I)I)c1ccccc1 | 1.25 | 7.63 | 0.944 | 0.275 | 4.97 | 5.01 | > 32.5 | 36.9 | 5.78 | 3.58 | 5.65 | 2.78 | > 38.5 | 6.57 | 4.06 | 29.9 | 7.36 | 23.2 | 11.2
O=[N+]([O-])c1ccc(-c2nnc(C34CC5CC(CC(C5)C3)C4)o2)cc1 | > 100 | > 100 | > 100 | > 100 | > 100 | > 100 | > 100 | > 100 | > 100 | > 100 | > 100 | > 100 | > 100 | > 100 | > 100 | > 100 | > 100 | > 100 | > 100
COC(=O)c1ccccc1CC1Cc2ccc3c(c2C1=O)CCC3 (centres undefined) | > 100 | > 100 | > 100 | 84.8 | > 100 | > 100 | > 100 | > 100 | > 100 | > 100 | 78.7 | > 100 | > 100 | 94.9 | > 100 | > 100 | > 100 | > 100 | > 100
CCN(CC)CCC(=O)c1ccc(Oc2ccc(Cl)cc2)cc1 | 48.7 | 32.4 | 42.2 | 59.8 | 34 | 38.8 | 47.2 | 42.2 | 28.3 | 43.2 | 34.2 | 32 | 56.7 | 32.8 | 28.8 |  | 32.6 | 32 | 41.8
Cc1nc2cccc(F)c2c(=O)n1C1CCCCNC1=O (centres undefined) | > 10 | > 10 | > 10 | > 10 | > 10 | > 10 | > 10 | > 10 | > 10 | > 10 | > 10 | > 10 | > 10 | > 10 | > 10 | > 10 | > 10 | > 10 | > 10
COc1ccc2oc(=N)c(C(=O)NCc3ccccc3)cc2c1 | > 100 | > 100 | > 100 | > 100 | 43.1 | > 100 | > 100 | > 100 | > 100 | 42.4 | 34.2 | > 100 | 36.8 |  | > 100 | 56.7 | > 100 | 43.5 | 60.8
O=[N+]([O-])c1ccc(-c2csc3nc(-c4ccccc4)nn23)cc1 | > 100 | > 100 | > 100 | > 100 | > 100 | > 100 | > 100 | > 100 | > 100 | > 100 | > 100 | > 100 | > 100 | > 100 | > 100 | > 100 | > 100 | > 100 | > 100
COC(=O)C1=CC2CCCC1(O)C(C(C)=O)C2 (centres undefined) | > 81.5 | 38.6 | 43.8 | 47.8 | > 100 | > 100 | > 100 | > 86.6 | 41.3 | > 100 | > 100 | > 100 | > 100 | > 100 | 34.3 | > 100 | > 100 | > 100 | 32.9
O=c1c2nn3c(=O)n(-c4ccccc4)c(=O)c3nn2c(=O)n1-c1ccccc1 | > 100 | > 100 | > 100 | > 100 | > 100 | > 100 | > 100 | > 100 | > 100 | > 100 | > 100 | > 100 | > 100 | > 100 | > 100 | > 100 | > 100 | > 100 | > 100
C=CCOc1ccc(/C(N=Nc2ccc([N+](=O)[O-])cc2)=N/NC(=O)c2ccccc2)cc1OC | > 100 | > 100 | > 100 | > 100 | > 100 | > 100 | > 100 | > 100 | > 100 | > 100 | > 100 | > 100 | > 100 | > 100 | > 100 |  | > 100 | > 100 | > 100
CC(=O)N1C(c2[nH]c3ccccc3c2-c2ccccc2)CCN1c1ccccc1 (centres undefined) | > 10 | > 10 | > 10 | > 10 | > 10 | > 10 | > 10 | > 10 | > 10 | > 10 | > 10 | > 10 | > 10 |  | > 10 | > 10 | > 10 | > 10 | > 10
CC(=O)N1C(Nc2ccccn2)CCN1c1ccccc1 (centres undefined) | > 10 | > 10 | > 10 | > 10 | > 10 | > 10 | > 10 | > 10 | > 10 | > 10 | > 10 | > 10 | > 10 | > 10 | > 10 | > 10 | > 10 | > 10 | > 10
O=C(C1OC1c1ccc(O)cc1)C12CC3CC(CC(C3)C1)C2 (centres undefined) | > 100 | > 86.1 | > 55.2 | > 43.4 | > 100 | > 100 | > 100 | > 78.2 | 48.2 | > 100 | > 55 | > 69.8 | > 100 | 57.4 | > 56.1 | > 100 | > 100 | > 100 | > 100
O=C1C=C2C(=NC34CCCCC3C(c3ccccc3)C3=C(c5ccccc5CC3)N24)c2ccccc21 (centres undefined) | > 10 |  | > 10 | > 10 | > 10 | > 10 | > 10 | > 10 | > 10 | > 10 | > 10 | > 10 | > 10 | > 10 | > 10 | > 10 | > 10 | > 10 | > 10
COC(O)C(=O)c1c2c(cc3c1CC1(Cc4cc5c(cc4C1)CCC5)C3)CCC2 (centres undefined) | 15.1 | 35.8 | 33.8 | 44.3 | 33.1 | 39.8 | 22.7 | 41.1 | 27 | 29 | 6.58 | 20.9 | 34 | 31 | 22.8 | 31.8 | 35.7 | 32.1 | 26
Cc1ccc(C2=Nc3cccc4cccc(c34)N2)cc1 | > 100 | > 100 | > 100 | > 100 | > 100 | > 100 | > 100 | > 100 | > 100 | > 100 | > 100 | > 100 | > 100 | > 100 | > 100 | > 100 | > 100 | > 100 | > 100
CCOC(CN=C=S)OCC | > 10 | > 10 | > 10 | > 10 | > 10 | > 10 | > 10 | > 10 | > 10 | > 10 | > 10 | > 10 | > 10 | > 10 | > 10 | > 10 | > 10 | > 10 | > 10
NC(=O)c1cc2cc(Cl)cc(Cl)c2oc1=Nc1ccc(F)cc1 | 24.8 | > 100 | 37.1 | > 100 | 27.8 | 42.3 | > 100 | 34.5 | 25.3 | 37 | 44.2 | 38.3 | 34.5 | 80.4 | > 100 | 56.5 | 46.3 | 31.6 | 87.3
CCOC(=O)N/N=C(/OCC)c1ccccc1 | > 100 | > 100 | > 100 | > 100 | > 100 | > 100 | > 100 | > 100 | > 100 | > 100 | > 100 | > 100 | > 100 | > 100 | > 100 | > 100 | > 100 | > 100 | > 100
CSc1ncc2c(C#N)c3sc4ccccc4n3c(=O)c2n1 | > 100 | > 100 | > 100 | > 100 | > 100 | > 100 | > 100 | > 100 | > 100 | > 100 | > 100 | > 100 | > 100 | > 100 | > 100 | > 100 | > 100 | > 100 | > 100
O=C1c2c(ccc3c2CCCC3)CC12Cc1ccc3c(c1C2=O)CCCC3 | > 100 | > 100 | > 100 | > 100 | > 100 | > 100 | > 100 | > 100 | > 100 | > 100 | > 100 | > 100 | > 100 | > 100 | > 100 | > 100 | > 100 | > 100 | > 100
CC(=O)NC(CS/N=N/c1nc[nH]c1C(N)=O)C(=O)O (centres undefined) | 0.0673 | > 100 | > 36.1 | > 23.7 | > 100 | > 100 | > 100 | > 100 | > 100 | > 100 | > 100 | > 100 | > 100 | > 100 | > 100 | > 100 | > 100 | > 100 | > 100
